Assay results from patent publication US10745365B2, “Luminogenic and fluorogenic compounds and methods to detect molecules or conditions” (Promega Corporation, priority 2005, dated 2020).
Several values for one entry are separate records, joined by “and”; a condition that tells them apart may be missing. Equal entries are not always repeated.

Columns and labels:
[1] = tested on: human hepatocytes (CYP3A activity)
[2] = target: T1, human recombinant monoamine oxidase A (MAO A) (Homo sapiens, UniProt P21397); assay: Two-step bioluminogenic MAO A substrate assay
T1 sequence (P21397 1-527): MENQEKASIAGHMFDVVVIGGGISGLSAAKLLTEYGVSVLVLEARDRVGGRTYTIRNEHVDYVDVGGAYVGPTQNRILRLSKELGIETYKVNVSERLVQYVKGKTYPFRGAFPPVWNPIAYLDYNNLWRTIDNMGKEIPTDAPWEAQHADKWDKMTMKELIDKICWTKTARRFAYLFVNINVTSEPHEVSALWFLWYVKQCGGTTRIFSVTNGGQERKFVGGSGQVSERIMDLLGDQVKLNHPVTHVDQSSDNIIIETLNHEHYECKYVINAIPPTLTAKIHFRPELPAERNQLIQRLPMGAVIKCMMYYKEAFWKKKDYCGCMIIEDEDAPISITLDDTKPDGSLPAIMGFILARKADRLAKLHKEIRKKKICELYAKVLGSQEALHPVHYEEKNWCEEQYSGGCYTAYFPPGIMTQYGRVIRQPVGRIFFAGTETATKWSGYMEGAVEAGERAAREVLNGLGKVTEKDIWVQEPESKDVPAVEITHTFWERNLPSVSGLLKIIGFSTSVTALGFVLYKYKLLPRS

[3] = target: T2, human recombinant flavin-containing monooxygenase 3 (FMO 3) (Homo sapiens, UniProt P31513); assay: Two-step luminescent FMO 3 assay; type: biochemical; settings: fit of Table 33
T2 construct: purchased Sigma Chemical Company F-5053; host or cells: baculovirus infected insect cells (microsomes)
T2 sequence (P31513 1-532): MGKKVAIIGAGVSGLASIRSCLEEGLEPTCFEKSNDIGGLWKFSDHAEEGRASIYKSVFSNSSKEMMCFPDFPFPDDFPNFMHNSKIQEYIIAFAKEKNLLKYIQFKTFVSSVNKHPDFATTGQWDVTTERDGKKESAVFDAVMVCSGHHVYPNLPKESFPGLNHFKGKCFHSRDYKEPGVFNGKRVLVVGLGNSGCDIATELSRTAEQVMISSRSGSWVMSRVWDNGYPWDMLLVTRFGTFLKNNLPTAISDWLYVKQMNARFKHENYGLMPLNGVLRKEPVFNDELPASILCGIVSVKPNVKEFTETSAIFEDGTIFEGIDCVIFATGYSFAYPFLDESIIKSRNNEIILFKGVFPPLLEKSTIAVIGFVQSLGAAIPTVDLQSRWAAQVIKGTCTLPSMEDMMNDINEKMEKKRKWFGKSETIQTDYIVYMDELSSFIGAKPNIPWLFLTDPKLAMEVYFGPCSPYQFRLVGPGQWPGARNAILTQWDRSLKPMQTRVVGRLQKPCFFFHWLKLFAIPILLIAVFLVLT

[4] = target: T3, human recombinant monoamine oxidase B (MAO B) (Homo sapiens, UniProt P27338); assay: biochemical
T3 construct: purchased Sigma Chemical Company M-7441; host or cells: baculovirus infected insect cells (microsomes)
T3 sequence (P27338 1-520): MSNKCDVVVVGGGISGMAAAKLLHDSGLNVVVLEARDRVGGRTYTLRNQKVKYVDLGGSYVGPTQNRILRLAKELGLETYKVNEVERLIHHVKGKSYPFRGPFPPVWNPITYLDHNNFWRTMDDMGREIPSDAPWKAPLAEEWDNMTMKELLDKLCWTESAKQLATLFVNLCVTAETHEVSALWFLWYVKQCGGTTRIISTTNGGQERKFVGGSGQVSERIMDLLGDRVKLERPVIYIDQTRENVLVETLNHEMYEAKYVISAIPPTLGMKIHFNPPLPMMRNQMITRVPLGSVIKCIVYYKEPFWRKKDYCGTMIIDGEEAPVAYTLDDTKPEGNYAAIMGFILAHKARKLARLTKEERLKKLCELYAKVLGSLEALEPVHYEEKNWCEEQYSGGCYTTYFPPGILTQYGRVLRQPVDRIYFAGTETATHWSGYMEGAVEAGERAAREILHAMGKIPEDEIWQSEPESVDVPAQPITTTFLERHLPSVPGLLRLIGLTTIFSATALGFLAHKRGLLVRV

[5] = target: T1, human recombinant monoamine oxidase A (MAO A); assay: MAO A inhibition (IC50) with substrate MAO-11; type: biochemical; parameters: purchased Sigma Chemical Company M-7316; host or cells: baculovirus infected insect cells (microsomes)
[6] = target: T4, equine alcohol dehydrogenase (Equus caballus, UniProt P00327); assay: Effect of inhibitors on the conversion of luciferol by equine alcohol dehydrogenase; type: biochemical; settings: luciferol + equine ADH + NAD+ with 10 μl inhibitor solution, 37° C., 30 min; duplicates #1, #2 (controls 1023, 1087)
T4 construct: purchased Sigma Chem. Co. A9589
Description: Trichloroethanol solution: A 0.48 ml sample of 2,2,2, trichloroethanol (Aldrich T5480-5) was dissolved in water.
Reactions were initiated by addition of 1.5 μl of luciferol solution. Upon addition of the luciferol solution, the reactions were mixed and placed at 37° C.

[7] = target: T5, QuantiLum Luciferase (firefly luciferase) (Photinus pyralis, UniProt P08659); assay: ATP titration of luciferase reactions with luciferin and fluoroluciferins; type: biochemical
T5 construct: purchased Promega Corporation El 70
Description: AU compounds except 5’-fluoroluciferin and DTT were purchased from Sigma Chemical. To some of this reagent 5 mM ATP (Amersham/Invitrogen) was added, then serially diluted by half-logs to 0.05 mM. Reactions were initiated by adding equal volumes (0.1 ml) of reagent and DMEM medium (Gibco/Invitrogen) containing 0.1% Prionex® (Pentapharm) and 1.4×10-5 mg/ml QuantiLum™ Luciferase (Promega Corporation).
For ATP titrations for 7′-fluoroluciferin, reagent was created containing 200 mM HEPES, 200 mM PIPES, 1 mM CDTA, 0.5% Tergitol NP-9, 0.03% Benzyl dodecyldimethyl ammonium bromide, 30 mM thiourea, 10 mM magnesium sulfate, and 0.15 mM 7′-fluoroluciferin. This solution was separated into 3 parts and pH of the reagents were 7.4, 7.2 and 6.7. To some of this reagent, 10 mM ATP (Amersham/Invitrogen) was added. The ATP was serially diluted by quarter-logs from 10 mM to 0.32 mM.
Reactions were initiated by adding equal volumes (0.03 ml) of reagent and DMEM medium (Gibco/Invitrogen) containing 0.1% Prionex® (Pentapharm) and 1.4×10-5 mg/ml QuantiLum™ Luciferase (Promega Corporation).
Luminescence was measured for 0.5 seconds per well using Berthold Orion luminometer.

[8] = target: T5, QuantiLum Luciferase (firefly luciferase); assay: Luminescence spectra of fluoroluciferins; type: biochemical; settings: pH 7.4
Description: All compounds except fluoroluciferin and ATP were purchased from Sigma Chemical. ATP was purchased from Amersham/Invitrogen.
Spectra were measured using 0.5s integration with 1 nm increments on a Spex Fluorolog.

[9] = target: T5, QuantiLum Luciferase (firefly luciferase); assay: pH titration of 7′-fluoroluciferin luciferase reaction; type: biochemical
[10] = target: CYP2C19 (Homo sapiens, UniProt P33261); assay: biochemical
CYP2C19, sequence (P33261 whole entry): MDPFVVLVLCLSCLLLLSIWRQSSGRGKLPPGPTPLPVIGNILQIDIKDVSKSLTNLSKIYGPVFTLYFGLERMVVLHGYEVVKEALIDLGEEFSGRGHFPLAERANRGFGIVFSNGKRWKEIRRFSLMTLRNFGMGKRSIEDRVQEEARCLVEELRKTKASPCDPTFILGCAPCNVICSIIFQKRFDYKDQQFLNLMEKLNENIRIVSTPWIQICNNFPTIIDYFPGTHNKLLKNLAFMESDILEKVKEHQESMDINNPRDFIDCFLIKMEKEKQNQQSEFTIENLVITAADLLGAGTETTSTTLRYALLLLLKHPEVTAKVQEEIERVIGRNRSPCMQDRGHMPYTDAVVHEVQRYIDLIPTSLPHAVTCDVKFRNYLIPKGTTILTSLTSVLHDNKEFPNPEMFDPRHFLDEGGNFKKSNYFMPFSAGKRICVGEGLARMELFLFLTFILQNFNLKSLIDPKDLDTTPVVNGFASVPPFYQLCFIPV

T5 sequence (P08659 whole entry): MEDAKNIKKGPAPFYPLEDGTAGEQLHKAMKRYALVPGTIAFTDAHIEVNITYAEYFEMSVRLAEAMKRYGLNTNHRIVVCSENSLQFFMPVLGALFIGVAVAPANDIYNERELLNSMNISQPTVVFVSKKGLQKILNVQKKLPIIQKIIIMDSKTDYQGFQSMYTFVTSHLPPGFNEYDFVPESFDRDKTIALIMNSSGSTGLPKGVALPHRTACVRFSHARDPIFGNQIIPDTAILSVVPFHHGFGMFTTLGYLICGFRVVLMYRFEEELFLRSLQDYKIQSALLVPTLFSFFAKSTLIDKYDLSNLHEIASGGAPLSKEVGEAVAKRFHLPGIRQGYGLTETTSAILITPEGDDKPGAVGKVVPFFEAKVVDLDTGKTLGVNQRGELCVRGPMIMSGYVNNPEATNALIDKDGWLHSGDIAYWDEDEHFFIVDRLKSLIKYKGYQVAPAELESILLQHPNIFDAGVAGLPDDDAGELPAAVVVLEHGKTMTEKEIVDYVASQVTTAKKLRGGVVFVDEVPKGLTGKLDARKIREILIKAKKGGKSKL
T4 sequence (P00327 whole entry): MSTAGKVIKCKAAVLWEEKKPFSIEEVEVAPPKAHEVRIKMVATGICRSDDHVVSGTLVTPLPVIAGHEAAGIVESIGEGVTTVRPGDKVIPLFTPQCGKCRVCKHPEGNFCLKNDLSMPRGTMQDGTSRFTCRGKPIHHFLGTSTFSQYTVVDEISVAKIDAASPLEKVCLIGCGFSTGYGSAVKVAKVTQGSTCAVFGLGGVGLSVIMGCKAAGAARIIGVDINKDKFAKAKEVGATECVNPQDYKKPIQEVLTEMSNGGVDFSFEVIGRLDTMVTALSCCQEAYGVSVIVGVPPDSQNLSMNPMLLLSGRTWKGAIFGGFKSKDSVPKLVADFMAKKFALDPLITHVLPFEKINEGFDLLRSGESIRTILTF

SMILES: CC(=O)N1CCN(c2ccc(OCC3COC(Cn4ccnc4)(c4ccc(Cl)cc4Cl)O3)cc2)CC1 (centres unmarked) [ketoconazole]
- CYP3A-dependent luminescence in hepatocytes [1]: inhibition by ketoconazole of both basal and rifampicin-induced activity

SMILES: CNCCCOc1ccc2nc(C3=N[C@@H](C(=O)O)CS3)ccc2c1 [MAO-7, 6-(3-methylaminopropoxy)quinolinyl-luciferin]
- MAO specificity by ratio RLUmax/Km ([2]; Table 25): more specific substrate for MAO A
- signal-to-background ratio at the Km value ([2]; fit of Table 22): about 95
- signal-to-background ratio at the Km value [3]: about 8.5

SMILES: NCCc1ccccc1 [phenethylamine]
- IC50 [4]: 20 ± 2 µM
- IC50 [5]: 134 ± 9 µM

SMILES: c1cn[nH]c1 [Pyrazol, pyrazol]
- Relative Light Units [6]: 516.4 Relative Light Units and 490.7 Relative Light Units

SMILES: O=C(O)[C@H]1CSC(c2nc3ccc(O)c(F)c3s2)=N1 [7′-fluoroluciferin]
- ATP requirement of luciferase reaction [7]: requirement for ATP is much higher
- red shift of luminescence λmax from regular luciferin [8]: approximately 21 nm
- pH optima of firefly luciferase reaction [9]: ~7.5

SMILES: NNC(=O)c1ccncc1 [isoniazid]
- IC50 [10]: 76 µM
